Reference: patent US8729082B2, “Substituted imidazoquinoxalines” (Bayer Intellectual Property GmbH, priority 2009, dated 2014)

The molecules below were run against T1, human kinase Mps-1 (Homo sapiens, UniProt P33981) (assay: Mps-1 kinase assay (HTRF)). Conditions: lowATP; mean; read-out: Mps1 lowATP mean IC50.
T1 construct: N-terminally GST-tagged human full length recombinant Mps-1 kinase; purchased Invitrogen, Karslruhe, Germany PV4071
T1 sequence (P33981 1-857): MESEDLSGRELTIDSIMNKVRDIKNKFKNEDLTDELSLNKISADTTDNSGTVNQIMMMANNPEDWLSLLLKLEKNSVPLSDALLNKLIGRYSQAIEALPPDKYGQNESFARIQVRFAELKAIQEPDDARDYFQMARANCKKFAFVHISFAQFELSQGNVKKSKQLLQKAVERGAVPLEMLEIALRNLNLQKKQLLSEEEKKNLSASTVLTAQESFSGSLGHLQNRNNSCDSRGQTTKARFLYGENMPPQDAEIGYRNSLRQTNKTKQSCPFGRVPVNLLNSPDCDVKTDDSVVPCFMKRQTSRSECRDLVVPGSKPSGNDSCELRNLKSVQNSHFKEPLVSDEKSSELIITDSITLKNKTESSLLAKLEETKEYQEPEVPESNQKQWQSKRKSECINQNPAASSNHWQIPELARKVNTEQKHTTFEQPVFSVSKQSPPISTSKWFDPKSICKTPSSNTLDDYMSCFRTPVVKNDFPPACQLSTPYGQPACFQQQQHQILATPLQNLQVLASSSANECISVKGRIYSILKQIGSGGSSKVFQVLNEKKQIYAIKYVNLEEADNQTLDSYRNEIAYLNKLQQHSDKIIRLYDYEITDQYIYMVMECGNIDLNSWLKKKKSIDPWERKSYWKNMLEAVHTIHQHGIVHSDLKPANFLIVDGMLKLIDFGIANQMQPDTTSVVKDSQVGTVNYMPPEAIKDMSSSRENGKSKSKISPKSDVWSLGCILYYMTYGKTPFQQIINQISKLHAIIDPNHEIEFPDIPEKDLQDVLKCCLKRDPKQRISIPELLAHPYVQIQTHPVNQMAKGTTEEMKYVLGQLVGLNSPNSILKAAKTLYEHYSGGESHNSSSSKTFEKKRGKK
Assay type: biochemical
Outline: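 HTRF readout: EDTA-stopped reactions incubated 1 h with europium anti-phospho(Ser/Thr) antibody and streptavidin-XLent, emission ratio 665/620 nm after 350 nm excitation. Kinase step: compound pre-bound 15 min to ~1 nM GST-Mps-1, then 60 min at 22 °C with ATP and biotin-peptide substrate; inhibition scaled between no-inhibitor (0%) and no-enzyme (100%) controls.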

SMILES | IC50 [µM]
CNC(=O)Nc1ccc(-c2cnc3c(NCCNC(C)=O)nc4cc(C#N)ccc4n23)cc1 [Example 2-228, N-{2-[(7-cyano-1-{4-[(methylcarbamoyl)amino]phenyl}imidazo[1,2-a]quinoxalin-4-yl)amino]ethyl}acetamide] | 9.78
CNC(=O)Nc1ccc(-c2cnc3c(NCCCn4ccnc4)nc4cc(C#N)ccc4n23)cc1 [Example 2-229, 1-[4-(7-cyano-4-{[3-(1H-imidazol-1-yl)propyl]amino}imidazo[1,2-a]quinoxalin-1-yl)phenyl]-3-methylurea] | 4.99
CNC(=O)Nc1ccc(-c2cnc3c(NCc4cccnc4)nc4cc(C#N)ccc4n23)cc1 [Example 2-230, 1-(4-{7-cyano-4-[(pyridin-3-ylmethyl)amino]imidazo[1,2-a]quinoxalin-1-yl}phenyl)-3-methylurea] | 1.41
CNC(=O)Nc1ccc(-c2cnc3c(NCc4ccco4)nc4cc(C#N)ccc4n23)cc1 [Example 2-231, 1-(4-{7-cyano-4-[(furan-2-ylmethyl)amino]imidazo[1,2-a]quinoxalin-1-yl}phenyl)-3-methylurea] | 5.21
CNC(=O)Nc1ccc(-c2cnc3c(NCc4ccnn4C)nc4cc(C#N)ccc4n23)cc1 [Example 2-232, 1-[4-(7-cyano-4-{[(1-methyl-1H-pyrazol-5-yl)methyl]amino}imidazo[1,2-a]quinoxalin-1-yl)phenyl]-3-methylurea] | 1.14
CNC(=O)Nc1ccc(-c2cnc3c(NCC(O)CO)nc4cc(C#N)ccc4n23)cc1 (centres unmarked) [Example 2-233, 1-(4-{7-cyano-4-[(2,3-dihydroxypropyl)amino]imidazo[1,2-a]quinoxalin-1-yl}phenyl)-3-methylurea] | 17.8
N#Cc1ccc2c(c1)nc(NCCO)c1ncc(-c3ccc(C(=O)NC4CC4)c(Cl)c3)n12 [Example 2-235, 2-chloro-4-{7-cyano-4-[(2-hydroxyethyl)amino]imidazo[1,2-a]quinoxalin-1-yl}-N-cyclopropylbenzamide] | 3.45
N#Cc1ccc2c(c1)nc(NCCCN1CCOCC1)c1ncc(-c3ccc(C(=O)NC4CC4)c(Cl)c3)n12 [Example 2-236, 2-chloro-4-(7-cyano-4-{[3-(morpholin-4-yl)propyl]amino}imidazo[1,2-a]quinoxalin-1-yl)-N-cyclopropylbenzamide] | 15
N#Cc1ccc2c(c1)nc(NCCCCO)c1ncc(-c3ccc(C(=O)NC4CC4)c(Cl)c3)n12 [Example 2-239, 2-chloro-4-{7-cyano-4-[(4-hydroxybutyl)amino]imidazo[1,2-a]quinoxalin-1-yl}-N-cyclopropylbenzamide] | 1.04
N#Cc1ccc2c(c1)nc(NCCCO)c1ncc(-c3ccc(C(=O)NC4CC4)c(Cl)c3)n12 [Example 2-242, 2-chloro-4-{7-cyano-4-[(3-hydroxypropyl)amino]imidazo[1,2-a]quinoxalin-1-yl}-N-cyclopropylbenzamide] | 3.78
CC(=O)NCCNc1nc2cc(C#N)ccc2n2c(-c3ccc(C(=O)NC4CC4)c(Cl)c3)cnc12 [Example 2-244, 4-(4-{[2-(acetylamino)ethyl]amino}-7-cyanoimidazo[1,2-a]quinoxalin-1-yl)-2-chloro-N-cyclopropylbenzamide] | 8.82
N#Cc1ccc2c(c1)nc(NCc1cccnc1)c1ncc(-c3ccc(C(=O)NC4CC4)c(Cl)c3)n12 [Example 2-245, 2-chloro-4-{7-cyano-4-[(pyridin-3-ylmethyl)amino]imidazo[1,2-a]quinoxalin-1-yl}-N-cyclopropylbenzamide] | 1.12
N#Cc1ccc2c(c1)nc(NCc1ccncc1)c1ncc(-c3ccc(C(=O)NC4CC4)c(Cl)c3)n12 [Example 2-246, 2-chloro-4-{7-cyano-4-[(pyridin-4-ylmethyl)amino]imidazo[1,2-a]quinoxalin-1-yl}-N-cyclopropylbenzamide] | 1.3
N#Cc1ccc2c(c1)nc(NCCC(N)=O)c1ncc(-c3ccc(C(=O)NC4CC4)c(Cl)c3)n12 [Example 2-248, 4-{4-[(3-amino-3-oxopropyl)amino]-7-cyanoimidazo[1,2-a]quinoxalin-1-yl}-2-chloro-N-cyclopropylbenzamide] | 5.83
COCCCNc1nc2cc(C#N)ccc2n2c(-c3ccc(C(=O)NC4CC4)c(Cl)c3)cnc12 [Example 2-249, 2-chloro-4-{7-cyano-4-[(3-methoxypropyl)amino]imidazo[1,2-a]quinoxalin-1-yl}-N-cyclopropylbenzamide] | 2.4
CC(C)(C)OC(=O)NCCCNc1nc2cc(C#N)ccc2n2c(-c3ccc(C(=O)NC4CC4)c(Cl)c3)cnc12 [Example 2-250, tert-butyl [3-({1-[3-chloro-4-(cyclopropylcarbamoyl)phenyl]-7-cyanoimidazo[1,2-a]quinoxalin-4-yl}amino)propyl]carbamate] | 1.46
Cn1ccc(CNc2nc3cc(C#N)ccc3n3c(-c4ccc(C(=O)NC5CC5)c(Cl)c4)cnc23)n1 [Example 2-251, 2-chloro-4-(7-cyano-4-{[(1-methyl-1H-pyrazol-3-yl)methyl]amino}imidazo[1,2-a]quinoxalin-1-yl)-N-cyclopropylbenzamide] | 2.54
Cn1cc(CNc2nc3cc(C#N)ccc3n3c(-c4ccc(C(=O)NC5CC5)c(Cl)c4)cnc23)cn1 [Example 2-253, 2-chloro-4-(7-cyano-4-{[(1-methyl-1H-pyrazol-4-yl)methyl]amino}imidazo[1,2-a]quinoxalin-1-yl)-N-cyclopropylbenzamide] | 1.22
N#Cc1ccc2c(c1)nc(NCC(O)CO)c1ncc(-c3ccc(C(=O)NC4CC4)c(Cl)c3)n12 (centres unmarked) [Example 2-254, 2-chloro-4-{7-cyano-4-[(2,3-dihydroxypropyl)amino]imidazo[1,2-a]quinoxalin-1-yl}-N-cyclopropylbenzamide] | 5.53
CC(C)CNc1nc2ccccc2n2c(-c3ccc(C(=O)Nc4cc[nH]n4)cc3)cnc12 [Example 3-1, 4-{4-[(2-methylpropyl)amino]imidazo[1,2-a]quinoxalin-1-yl}-N-(1H-pyrazol-3-yl)benzamide] | 3.95

Now those with a lower IC50, led by results:

IC50 [µM] | SMILES
0.81 | CCCNc1nc2cc(C#N)ccc2n2c(-c3ccc(C(=O)NC4CC4)c(Cl)c3)cnc12 [Example 2-234, 2-chloro-4-[7-cyano-4-(propylamino)imidazo[1,2-a]quinoxalin-1-yl]-N-cyclopropylbenzamide]
0.6 | CC(C)CCNc1nc2cc(C#N)ccc2n2c(-c3ccc(C(=O)NC4CC4)c(Cl)c3)cnc12 [Example 2-237, 2-chloro-4-{7-cyano-4-[(3-methylbutyl)amino]imidazo[1,2-a]quinoxalin-1-yl}-N-cyclopropylbenzamide]
0.613 | N#Cc1ccc2c(c1)nc(NCc1ccccc1F)c1ncc(-c3ccc(C(=O)NC4CC4)c(Cl)c3)n12 [Example 2-238, 2-chloro-4-{7-cyano-4-[(2-fluorobenzyl)amino]imidazo[1,2-a]quinoxalin-1-yl}-N-cyclopropylbenzamide]
0.889 | N#Cc1ccc2c(c1)nc(NCc1ccccc1)c1ncc(-c3ccc(C(=O)NC4CC4)c(Cl)c3)n12 [Example 2-240, 4-[4-(benzylamino)-7-cyanoimidazo[1,2-a]quinoxalin-1-yl]-2-chloro-N-cyclopropylbenzamide]
0.546 | N#Cc1ccc2c(c1)nc(NCc1cccs1)c1ncc(-c3ccc(C(=O)NC4CC4)c(Cl)c3)n12 [Example 2-241, 2-chloro-4-{7-cyano-4-[(thiophen-2-ylmethyl)amino]imidazo[1,2-a]quinoxalin-1-yl}-N-cyclopropylbenzamide]
0.506 | CCCCNc1nc2cc(C#N)ccc2n2c(-c3ccc(C(=O)NC4CC4)c(Cl)c3)cnc12 [Example 2-243, 4-[4-(butylamino)-7-cyanoimidazo[1,2-a]quinoxalin-1-yl]-2-chloro-N-cyclopropylbenzamide]
0.339 | CC(C)CNc1nc2cc(C#N)ccc2n2c(-c3ccc(C(=O)NC4CC4)c(Cl)c3)cnc12 [Example 2-247, 2-chloro-4-{7-cyano-4-[(2-methylpropyl)amino]imidazo[1,2-a]quinoxalin-1-yl}-N-cyclopropylbenzamide]
0.852 | Cn1nccc1CNc1nc2cc(C#N)ccc2n2c(-c3ccc(C(=O)NC4CC4)c(Cl)c3)cnc12 [Example 2-252, 2-chloro-4-(7-cyano-4-{[(1-methyl-1H-pyrazol-5-yl)methyl]amino}imidazo[1,2-a]quinoxalin-1-yl)-N-cyclopropylbenzamide]
0.369 | CCCNC(=O)c1ccc(-c2cnc3c(NCC(C)C)nc4ccccc4n23)cc1 [Example 3-2, 4-{4-[(2-methylpropyl)amino]imidazo[1,2-a]quinoxalin-1-yl}-N-propylbenzamide]
